As usually defined, the melting point is the temperature of the solid-liquid transition.

Our source for the melting point values is a melting point compilation (Tetko et al.; mined from patent text by program, amines drawn as free bases though some values may be those of a salt).

SMILES strings stand for the structures.

Take `CCCCCC(CC(=O)Nc1cc(CNC(N)=O)ccc1C(C)(C)C)c1ccc(OC)cc1OC` (stereo unspecified): the melting point is 112 to 113 °C. The compound `COCc1ccc(-c2csc(-c3ccncc3)n2)c(=O)[nH]1` gave a melting point of 249 to 254 °C. In the case of `CC1CCc2nc3c(N)nc4ccccc4c3n2N1` (stereo unspecified), the melting point fell in the range of 241 to 243 °C.

With `CC(C)(C)c1cccc(S(=O)(=O)n2c(CBr)cc3cc(C(F)(F)F)ccc32)c1`, the melting point was 80 °C.

The compound `COC(=O)c1ccc(CO)cc1O` had a melting point of 77 to 78 °C. Compound `CCCCCc1cc2c(cc1/C=C/c1ccc(C(=O)O)cc1)C(C)(C)CCC2(C)C` had a melting point of 173 to 174 °C. `O=C(O)Cc1cc(OCc2ccccc2)ccc1OCc1ccccc1` displayed a melting point of 95.5 to 100 °C. For `OC(COC1CCCCO1)(Cn1cncn1)c1ccc(Cl)cc1` (stereo unspecified), the melting point amounted to 70 °C. With `CCc1cc(OC)c(-c2csc(NC(=O)c3cc4ccccc4[nH]3)n2)c(OC)c1` the figure was above 260 °C; with `N=C(N)CSc1nnc(S)s1`, 184 to 187 °C. Then `O=C(Nc1ccccn1)c1ccc(OC(F)F)c2oc3ccc(C(F)(F)F)cc3c12`, with 169 to 170 °C; and `COc1ccc(-c2nc(C(C)=O)c[nH]2)cc1`, with 248 to 250 °C.

`COC(=O)Nc1nc2ccc(Sc3ccccc3)cn2c1CN(C)C` displayed a melting point of 172 to 175 °C. `CO[C@@H]1CC[C@@H](NC(C)=O)c2ccccc21` (relative stereo) came in with a melting point of 97 to 100 °C.

`CNc1cccc(S(N)(=O)=O)n1` showed a melting point of 124 to 126 °C. Then `O=[N+]([O-])c1ccccc1NCC(F)(F)F`, with 84 to 89 °C.

`COc1ccc(-c2c(C(N)=O)c3n(c2Cl)CCN(C(=O)OC(C)(C)C)C3)cc1` returned a melting point of 188 °C. On to `COC(=O)c1cccc([N+](=O)[O-])c1NCc1ccc(-c2ccccc2-c2nnnn2Cc2ccccc2)cc1`, for which the melting point was in the range of 115 to 117 °C. For the compound `Cc1cc(Cn2c(-c3ccccc3)nc(Cl)c2C=O)ccc1OCc1ccccc1`, the melting point is 135 to 136 °C. Then `COc1cc(COc2nc(-c3ccccc3)ncc2C=O)ccc1OCc1nc(-c2ccco2)oc1C`, with 143 to 144 °C; and `CC(C)C[C@H](NC(=O)OCC1c2ccccc2-c2ccccc21)C(=O)N[C@H]1CCOC1OCc1ccccc1` (stereo partly specified), with 116 to 117 °C. `Cn1nc(-c2ccc(F)cc2)c(-c2ccncc2)c1C(O)CCc1ccccc1` (stereo unspecified) registered a melting point of 62 to 65 °C. For the compound `Cn1ccnc1C(=O)c1cc(C(C)(C)C)c(O)c(C(C)(C)C)c1`, the melting point fell in the range of 172 to 174 °C. Take `OC(c1ccccn1)c1cc(C(F)(F)F)nc2c(C(F)(F)F)cccc12` (stereo unspecified): the melting point lay within 133 to 135 °C. Consider `CN(C)CC=CC(=O)Nc1ccc2ncnc(Nc3cccc(Br)c3)c2c1`, for which the melting point fell in the range of 215 to 217 °C. Then `CCOC(=O)C(C)=Cc1cc(F)c(F)c(F)c1`, with 54 °C. As to `C=CCOC(=O)COc1cccc(NC(=O)NCC(=O)N(CC(=O)OC(C)(C)C)c2ccccc2C(=O)c2ccccc2)c1`, the melting point lay in the range of 134 to 136 °C. In turn, `CCOc1cc2ncc(C#N)c(Nc3ccc(F)c(Cl)c3)c2cc1NC(=O)C=CCN(C)C` returned a melting point of 196 to 198 °C.

Turning to `O=C1C=C(c2ccc(C(=O)N3Cc4cccn4Cc4ccccc43)cc2)CCC1`, the melting point fell in the range of 205 to 207 °C. For `CCCCN(Cc1ccc(-c2ccccc2-c2nnnn2C(c2ccccc2)(c2ccccc2)c2ccccc2)cc1)c1nc(SC)ncc1C(=O)OCC`, the melting point is 122 to 124 °C. Then `COc1ccc(-c2nc3c(C(=O)NC4CC5CCCC(C4)N5C)cccc3o2)cc1` (stereo unspecified), with 103 to 105 °C; and `C=CCS(=O)CCNC(N)=O` (stereo unspecified), with 66 °C. Then `O=C(O)C(=O)c1ccc(OCc2ccccc2)cc1`, with 97 to 98 °C.

For `NNC(=O)Nc1nc2ccccc2[nH]1`, the melting point was 320 to 322 °C. The compound `COC(=O)c1cc([N+](=O)[O-])c(C(F)(F)F)cc1NC(C)=O` yielded a melting point of 75 to 80 °C. For the compound `Clc1ccc2c(c1)c(-c1ccccc1)nn1cnnc21`, the melting point was in the range of 189 to 190 °C. Turning to `O=C(CO)c1ccc(Cl)c(Cl)c1`, the melting point is 115 to 118 °C. `Fc1cc(F)c(-c2c(Cl)nc3nccnc3c2Cl)c(F)c1` gave a melting point of 139 to 141 °C. For `CCCCCC(=O)C=Cc1ccc(CCCCCCCCCC(=O)OC)s1`, the melting point was 45 to 47 °C. Compound `O=C(N[C@@H](Cc1c[nH]c2ccccc12)C(=O)O)c1ccccc1` returned a melting point of 84 to 86 °C.

Turning to `CCCCOc1c(CO)n(CC(C)(C)C)c(=O)c2ccc(F)cc12`, the melting point lay in the range of 143 to 144 °C.

`CC1(C)CCn2c(nc(-c3ccncn3)cc2=O)N1CC(=O)c1ccccc1` gave a melting point of 203 to 205 °C. With `CCOC(=O)c1ccc(N2CCN(c3ccncc3)CC2)cc1` the figure was 162 to 164 °C; with `COC(=O)CCCc1cc2nc(Cl)ccc2n1S(=O)(=O)c1ccc(C(C)(C)C)cc1`, 107 °C. Then `Cc1ccc(S(=O)(=O)OC[C@H]2CC[C@@H](COS(=O)(=O)c3ccc(C)cc3)O2)cc1`, with 125 to 126 °C; and `O=C(NCCc1cccc2ccc(OC(c3ccccc3)c3ccccc3)cc12)C1CC1`, with 109 to 111 °C; and `CCCNC(=O)[C@H](C)C[C@H](O)[C@H](CC1CCCCC1)NC(=O)[C@H](Cc1cscn1)NC(=O)[C@@H](CC(=O)N(C)Cc1ccccc1)Cc1ccccc1`, with 115 to 118 °C. Consider `Cc1ccnc2c1N=C(S(C)(=O)=O)c1cccnc1N2C1CC1`, for which the melting point lay in the range of 172 to 173 °C.

Compound `CN1CCC(Oc2ccc(N)cc2)(c2ccccc2)CC1` returned a melting point of 174 to 175 °C. With `COc1ccc(C(=O)O)c(Oc2ccc(C(F)(F)F)cc2NC(=O)Nc2cc(C(F)(F)F)cc(C(F)(F)F)c2)c1` the figure was 248 °C; with `Cc1cccc(-c2[nH]nc(C(F)(F)F)c2-c2ccncc2)c1`, 237 to 239 °C; with `Cc1oc(-c2ccccc2)nc1CC#Cc1ccc(CC(C(=O)O)c2ccc(-c3ccccc3)cc2)cc1` (stereo unspecified), 163 to 165 °C. With `Cc1nc(-c2cccc(C(F)(F)F)c2)oc1COc1ccc(CCC(=O)O)cc1` the figure was 134 to 135 °C; with `O=[N+]([O-])c1ccc2c(c1)Sc1cc(OC/C=C/I)ccc1N2`, above 250 °C; with `O=C(NC1CC1)C1CC(=O)N(Cc2ccccc2)C1` (stereo unspecified), 94 to 96 °C. For the compound `CCOC(=O)c1c(C)[nH]c(Sc2cc(Cl)cc(Cl)c2)c1C(C)C`, the melting point lay in the range of 148 to 151 °C. `[N-]=[N+]=NC1CC(n2cc(I)c(=O)[nH]c2=O)OC1C(O)C(c1ccccc1)(c1ccccc1)c1ccccc1` (stereo unspecified) yielded a melting point of 80 °C. With `O=C(O)C1Cc2[nH]c3ccc(OCc4ccccc4)cc3c2C1` (stereo unspecified), the melting point is 161 to 163 °C.

`O=C(Nc1ccccc1C(=O)NCCc1ncc[nH]1)c1ccc(Cl)cc1Cl`: the melting point lay in the range of 178 to 186 °C. With `O=C1NC(=O)C(S(=O)(=O)c2ccc3ccccc3n2)S1` (stereo unspecified) the figure was 168 to 169 °C.

Compound `O=C1CCCC(Cl)=C1C(=O)c1ccc(Cl)c(OCCn2cnnn2)c1Cl` had a melting point of 122 to 124 °C. In turn, `Cc1cc(Cl)c(O)c(CN(C)C2CCCCCCC2)c1` gave a melting point of 101 °C. In turn, `COc1cc(Cc2cnc(NC=O)nc2N)cc(OC)c1OC` gave a melting point of 240 to 242 °C. `Cc1nc(CCCCn2cnc3c2c(=O)n(C)c(=O)n3C)no1` showed a melting point of 131 to 132 °C. In the case of `CC1=C(c2ccc(OCC(=O)O)c(Cl)c2Cl)CCCC1=O`, the melting point lay within 143 to 145 °C. Then `N#CC(=Cc1ccc2[nH]ccc2c1)S(=O)(=O)c1ccc(OC(F)(F)F)cc1`, with 171 to 175 °C; and `CN(Cc1ccccc1)Cc1c(-c2ccccc2)sc(N)c1C(=O)c1ccc(Cl)cc1`, with 86 to 88 °C.

Turning to `O=C(O)c1ccc2c(c1)Sc1ccccc1O2`, the melting point is 253 °C. Then `FC(F)(F)c1cccc(Nc2nc(NCc3ccco3)nc(OCc3ccncc3)n2)c1`, with 124 to 126 °C. Take `CCCCC[C@@H](CNC(=O)Nc1c(N2CCCC2)ncnc1N1CCCC1)c1cccc2c1OCO2`: the melting point fell in the range of 199 to 200 °C. `CC(C)(C)OC(=O)NC1CCCCCC=CC2CC2(C(=O)NS(=O)(=O)C2CC2)NC(=O)C2CC(OC(=O)c3ccc(F)cc3)CN2C1=O` (stereo unspecified) had a melting point of 154 to 156 °C. In the case of `COC(=O)C[C@H]1C[C@@H](CCc2c(-c3ccc(F)cc3)c(-c3ccccc3)c(C(=O)NCc3ccccc3)n2C(C)C)OC(C)(C)O1`, the melting point lay in the range of 65 to 67 °C. On to `NCCCCn1cnc2ccccc21`, for which the melting point is 119 to 123 °C. On to `COC(=O)NC1=NCC(c2cccc3ccccc23)N1C` (stereo unspecified), for which the melting point was 187 to 190 °C. In turn, `CC(C)(C)OC(=O)N1CCN(C(=O)N2CCOCC2)CC1` registered a melting point of 171 to 173 °C.

`CCCCCCCCN(C)C(=O)CC(=O)N(C)CCCCCCCC` had a melting point of 41 °C.

For the compound `Fc1ccc(C2(Cn3nc[nH]c3=S)OC2c2ccccc2Cl)cc1F` (stereo unspecified), the melting point turned out to be 165 °C.

As to `CC1(C)CC(Oc2nc(Cl)nc(N3C(C)(C)CCCC3(C)C)n2)CC(C)(C)N1O`, the melting point was in the range of 152 to 153 °C.

As for `O=C1CCN(Cc2ccccc2[N+](=O)[O-])CC1C(c1ccc(F)cc1)c1ccc(F)cc1` (stereo unspecified), the melting point was in the range of 151 to 152 °C.

In the case of `Cc1c(/C=C2\COc3ccc4ccccc4c3C2=O)ncn1C(c1ccccc1)(c1ccccc1)c1ccccc1`, the melting point was 164 to 167 °C. `CC(=O)O[C@H]1CC[C@H](c2ccc(I)cc2)CC1` came in with a melting point of 84.4 to 85.4 °C. With `Cn1cc(C(N)=O)c(=O)c2sc(-c3ccccc3)cc21` the figure was 266 to 268 °C; with `CCc1nnc2c(N(CC)CC)nc3ccccc3n12`, 98 to 100 °C; with `CC(C)(C)NC(=O)c1ccncc1`, 115 to 117 °C.

`O=C(Nc1ccccc1Oc1ccc(Cl)cc1)C1CCN(C(=O)c2ccccc2)CC1` showed a melting point of 158 to 160 °C.

On to `CS(=O)c1ccc2c(c1)OC(C)(C)O2` (stereo unspecified), for which the melting point fell in the range of 87 to 88 °C.
